Source: article PMC5944028, “Nonclinical and clinical pharmacological characterization of the potent and selective cathepsin K inhibitor MIV-711” (Journal of Translational Medicine, 2018)

Experiments:
[1] = Human plasma pharmacokinetics, single ascending dose study; format: in vivo, human healthy subjects; conditions: for AUC0–t / AUCinf / Cmax / Cmax/dose / t½: geometric mean (CV%); for tmax: median (min–max)
Source text: (§1) Twenty-seven healthy male and female subjects (18 male and 9 female) of any ethnic origin (24 White, 1 Asian, 1 Black, 1 Black/Caribbean White), aged between 19 and 64 years, and with a body mass index (BMI) between 18.0 and 32.0 kg/m^2, were selected for this study. Inclusion criteria for enrollment followed the standard practice for first-in-man studies.
(§2) This was a randomized, double-blind, placebo-controlled, sequential, single-ascending dose study conducted at a single site with the objective of evaluating the safety, tolerability, pharmacokinetics (PK) and pharmacodynamics of MIV-711. Subjects were randomized into 3 groups using a computer-generated pseudo-random permutation procedure. Each group consisted of 9 subjects with at least 3 subjects of each gender per group and subjects participated in 1–2 treatment periods. There was a minimum of 10 days between dose escalations and a minimum of 20 days between dosing occasions for individual subjects. For each subsequent dosing occasion, the decision to escalate the dose to the next level was taken after a thorough review of the safety, tolerability and PK data. In each treatment period, 7 subjects received MIV-711 and 2 received placebo (comprising of 1 subject of each gender). Dosing occurred on the morning of Day 1 following an overnight fast and subjects were kept in the fasted state until approximately 4.5 h after dosing. MIV-711 was given as a combination of 10 or 40 mg hard gelatin capsules, while placebo was given in similar capsules of identical appearance.
Blood samples were collected at pre-dose, 0.5, 1, 1.5, 2, 3, 4, 6, 8, 12, 16, 24, 36 and 48 h post-dose and processed into plasma for the measurement of concentrations of MIV-711. The PK analysis was conducted using WinNonlin Enterprise Version 5.2 (Pharsight Corporation, Mountain View, CA, USA).
The quantification of MIV-711 in monkey plasma was performed by taking 10–50 µL of plasma and mixing with 3 volumes of acetonitrile (10 s, Vibrofix). The sample was centrifuged (10 min, 20,000×g, 7 °C) and 5 µL of the supernatant was injected onto the liquid chromatography with tandem mass spectrometric detection (LC–MS/MS) system. The lowest concentration of the standard curves and the lower limit of quantification (LLOQ) was 1 nmol/L of MIV-711. The human plasma samples were prepared by protein precipitation for sample extraction followed by LC–MS/MS. The lowest concentration of the standard curves and the LLOQ was 4 nmol/L of MIV-711 using 25 µL of plasma.

[2] = Human safety and tolerability, single ascending dose study; format: in vivo, human healthy subjects
Source text: as §1, §2
Standard safety assessments were performed throughout the study and included physical examination, vital signs, 12-lead electrocardiogram (ECG), continuous ECG Holter monitoring, hematology, biochemistry, urinalysis and adverse event monitoring.
In the nonclinical studies, two-way ANOVA was used to assess the effects of MIV-711 on plasma CTX-I. Pearson’s correlation was used when comparing plasma exposure of MIV-711 with inhibitory effects on CTX-I. Student’s unpaired t test was used when assessing the effect of MIV-711 on urine biomarkers. In the clinical study, PK parameters were summarized by dose level using descriptive statistics. The dose proportionality for AUC and Cmax was assessed by using a power model with determination of the linear regression slope with a 95% confidence interval. Change in CTX-I from baseline at 24 h after dose was calculated by dose level and summarized using descriptive statistics. In addition, the 95% confidence interval for the difference between each MIV-711 group and the placebo group for these variables was calculated by dose level. Pearson’s correlation was used when comparing plasma exposure of MIV-711 with inhibitory effects on CTX-I. A time-matched and placebo-corrected approach was used to evaluate the effects of MIV-711 on the QTcF interval from the Holter ECG recordings. The change-from-baseline QTcF at post-dose time points was analyzed using an ANCOVA model including the treatment, time (categorical), and treatment-by-time interaction as fixed effects, baseline QTcF as a covariate, and subject as random effect. A p value < 0.05 was considered statistically significant. Data are expressed as mean ± SEM.

[3] = single ascending doses 20–600 mg

In the case of `C#C[C@@H]1CN(C(=O)[C@H](CC(C)C)NC(=O)c2ccc(-c3nc(N4CCN(C)CC4)sc3F)cc2)[C@@H]2C(=O)CO[C@H]12` [MIV-711], the “AUC0–t” value ([1]; 20 mg single oral dose) is reported as 0.128 (36) µmol/L × h, the AUCinf ([1]; 20 mg single oral dose) is reported as 0.158 (32) µmol/L × h and the Cmax ([1]; 20 mg single oral dose) is reported as 33 nM. For the same molecule, the Cmax/dose ([1]; 20 mg single oral dose) was 0.12 (26), the t½ ([1]; 20 mg single oral dose) was 3.4 (13) h and the tmax ([1]; 20 mg single oral dose) was 1.0 (0.50–2.0) h. For the same molecule, the “AUC0–24h” value ([1]; 100 mg) was 1.1 µM·h, the “AUC0–t” value ([1]; 100 mg single oral dose) was 1.13 (38) µmol/L × h and the AUCinf ([1]; 100 mg single oral dose) was 1.17 (37) µmol/L × h. For the same molecule, the Cmax ([1]; 100 mg single oral dose) was 293 nM, the Cmax/dose ([1]; 100 mg single oral dose) was 0.21 (23) and the t½ ([1]; 100 mg single oral dose) was 3.7 (15) h. The tmax ([1]; 100 mg single oral dose) was 1.0 (1.0–2.2) h, the “Plasma levels at 24 h post-dose” value ([1]; 100 mg, mostly below LLOQ) was less than 4 nM and the “AUC0–t” value ([1]; 200 mg single oral dose) was 2.45 (36) µmol/L × h. For the same molecule, the AUCinf ([1]; 200 mg single oral dose) was 2.51 (35) µmol/L × h, the Cmax ([1]; 200 mg single oral dose) was 756 nM and the Cmax/dose ([1]; 200 mg single oral dose) was 0.27 (36). For the same molecule, the t½ ([1]; 200 mg single oral dose) was 5.0 (16) h, the tmax ([1]; 200 mg single oral dose) was 1.0 (0.50–1.0) h and the “AUC0–t” value ([1]; 400 mg single oral dose) was 4.62 (33) µmol/L × h. For the same molecule, the AUCinf ([1]; 400 mg single oral dose) was 4.75 (32) µmol/L × h, the Cmax ([1]; 400 mg single oral dose) was 1180 nM and the Cmax/dose ([1]; 400 mg single oral dose) was 0.23 (37). The t½ ([1]; 400 mg single oral dose) was 6.5 (44) h, the tmax ([1]; 400 mg single oral dose) was 1.0 (1.0–1.5) h and the “AUC0–t” value ([1]; 600 mg single oral dose) was 6.75 (30) µmol/L × h. The AUCinf ([1]; 600 mg single oral dose) was 6.89 (30) µmol/L × h, the Cmax ([1]; 600 mg single oral dose) was 1390 nM and the Cmax/dose ([1]; 600 mg single oral dose) was 0.17 (38). For the same molecule, the t½ ([1]; 600 mg single oral dose) was 8.3 (34) h, the tmax ([1]; 600 mg single oral dose) was 1.0 (1.0–3.0) h and the Excreted renally unchanged ([1]; data not shown) was “less than 1%”. The “mean terminal t1/2” value ([1]; over the 20–600 mg dose range) was 3.4 to 8.3 h, the median tmax ([1]; single oral doses) was 1 h and the “Adverse events considered possibly related to treatment” value ([2]; 6/35, all mild) was 17%. The “Subjects reporting adverse events” value ([2]; 11/35 MIV-711-treated subjects) was 31%, the “Upper confidence interval of the projected QTcF effect at the highest observed plasma levels” value ([2]; maximum dose of 600 mg) was “below 10 ms” and the Safety and tolerability [2, 3] was “safe and well-tolerated”. For the same molecule, the Serious adverse events [2, 3] was “no serious adverse events”.
